Entries after “also recorded” stand apart in the source; their conditions may differ. [pyrroloC] = pyrrolo-2'-deoxycytidine (fluorescent C analogue)
What was measured:
[1] = test system: complementary strands containing each of the four natural deoxyribonucleotide bases opposite pyrrolo-dC; experiment: Hybridization specificity: melting temperature (Tm) of 19mer oligonucleotide containing a single pyrrolo-dC; format: binding
Description: The hybridization specificity of pyrrolo-dC was evaluated by determining the melting temperature (Tm) of a 19mer oligonucleotide with the sequence 5′-GCC TAA CTT CXG GAG ATG T-3′ (SEQ ID NO.: 1), where X is Pyrrolo-dC which contains a single pyrrolo-dC. This oligonucleotide was annealed to complementary strands containing each of the four natural deoxyribonucleotide bases opposite it. Hybridization was best with a strand containing dG opposite pyrrolo-dC and decreased in the order dG>dT>dA>dC (melting temperature Tm=65, 56, 55 and 52° C. respectively). The effect of multiple incorporations was next evaluated by synthesizing a T7 universal primer where dC was replaced with zero to four pyrrolo-dC residues. All five oligonucleotides had the same Tm as that of the control (57° C.) when hybridized with an oligonucleotide complementary to the T7 primer regardless of the number of pyrrolo-dC/dC substitutions.

[2] = test system: polymerases Taq, Vent, Pfu; experiment: PCR with different polymerases using T7 or T7-4 pyrrolo-dC primer; format: biochemical; conditions: biotinylated Sp6 reverse primer, ~500 nucleotide insert, Vent lower efficiency for both primers
Text: The control and experimental T7 primers were next compared in another experiment using limiting concentrations of each of the T7 primers (1.3, 0.4, 0.15 and 0.05 pmole per reaction) and excess Sp6 primer. […] Finally the control and T7 primer containing four pyrrolo-dC substitutions were compared in their ability to be recognized by a variety of polymerases, Taq from ABI, Vent from New England Biolabs and Pfu from Stratagene. In this case a biotinylated Sp6 primer was used as the reverse primer in the amplification reaction of a plasmid containing an approximately 500 nucleotide insert.
Experiments were carried out to examine the effect of substituted pyrrolo-dC primers on the activity of several polymerases. Three experiments were carried out to examine the ability of different polymerases (Taq, Vent, Pfu) to use the T7 or T7-4 pyrrolo-dC primer in PCR; the other primer in the pair was biotinylated Sp6. […] In FIG. 6, lane 1 is standards, lane 2 is T7-4 pyrrolo-dC primer with Taq (ABI), lane 3 is T7-4 pyrrolo-dC primer with Vent (NEB), lane 4 is T7-4 pyrrolo-dC primer with Pfu (Stratagene), lane 5 is T7 primer with Taq (ABI), lane 6 is T7 primer with Vent (NEB), lane 7 is T7 primer with Pfu (Stratagene), and lane 8 is standards.

[3] = test system: plasmid 600-nucleotide insert; experiment: PCR assay: ability of pyrrolo-dC substituted T7 primers to amplify a plasmid insert; format: biochemical; conditions: primer dilution 4, 1.3, 0.4, 0.15 and 0.05 pmol, FIG. 4
Description: A series of tests were performed to test the ability of the T7 primers synthesized above to function in biological assays. In the first series of tests each of the T7 primers was evaluated in a PCR assay for their ability to amplify a plasmid insert. In the first experiment either the control or one of the experimental T7 forward primers, with one to four pyrrolo-dC substitutions, and an Sp6 reverse primer were tested for their ability to amplify a plasmid 600-nucleotide insert using supramaximal primer concentrations and the PCR products analyzed on an acrylamide gel. The sequences of the T7 forward primers are as follows: 5′-TAA TAC GAX TCA CTA TAG G-3′ (SEQ ID NO.: 6); 5′-TAA TAC GAX TXA CTA TAG G-3′ (SEQ ID NO.: 7); 5′-TAA TAX GAX TXA CTA TAG G-3′ (SEQ ID NO.: 8); 5′-TAA TAX GAX TXA XTA TAG G-3′ (SEQ ID NO.: 9); (control) 5′-TAA TAC GAC TCA CTA TAG G-3′ (SEQ ID NO.: 10), where X=pyrrolo-dC. Analysis of the stained gel was consistent with no differences in either the mobility or intensity of the stained bands corresponding to the 600-nucleotide PCR product generated by the control or experimental T7 primers.
The control and experimental T7 primers were next compared in another experiment using limiting concentrations of each of the T7 primers (1.3, 0.4, 0.15 and 0.05 pmole per reaction) and excess Sp6 primer. […]

[4] = test system: otherwise duplex hybrid, mismatched base adenosine; conditions: mismatched base is adenosine; cited from earlier work
[5] = Spectral properties of pyrrolo-dC (extinction coefficients, fluorescence quantum yield); format: physicochemical; conditions: for QY (quantum yield): relative to quinine sulfate in O.5 M H2SO4
Text: The spectral properties of pyrrolo-dC, coupled with its unique base-pairing ability, make this fluorescent analog extremely valuable in probing DNA structure. When the pyrrolo-dC is base-paired, its fluorescence can be reduced or quenched through what is most likely base stacking interactions (see Table I).

[6] = target: T7 RNA Polymerase (Escherichia phage T7, UniProt P00573); conditions: transcription bubble in elongation complexes; cited from earlier work
Chain of T7 RNA Polymerase (P00573 whole entry): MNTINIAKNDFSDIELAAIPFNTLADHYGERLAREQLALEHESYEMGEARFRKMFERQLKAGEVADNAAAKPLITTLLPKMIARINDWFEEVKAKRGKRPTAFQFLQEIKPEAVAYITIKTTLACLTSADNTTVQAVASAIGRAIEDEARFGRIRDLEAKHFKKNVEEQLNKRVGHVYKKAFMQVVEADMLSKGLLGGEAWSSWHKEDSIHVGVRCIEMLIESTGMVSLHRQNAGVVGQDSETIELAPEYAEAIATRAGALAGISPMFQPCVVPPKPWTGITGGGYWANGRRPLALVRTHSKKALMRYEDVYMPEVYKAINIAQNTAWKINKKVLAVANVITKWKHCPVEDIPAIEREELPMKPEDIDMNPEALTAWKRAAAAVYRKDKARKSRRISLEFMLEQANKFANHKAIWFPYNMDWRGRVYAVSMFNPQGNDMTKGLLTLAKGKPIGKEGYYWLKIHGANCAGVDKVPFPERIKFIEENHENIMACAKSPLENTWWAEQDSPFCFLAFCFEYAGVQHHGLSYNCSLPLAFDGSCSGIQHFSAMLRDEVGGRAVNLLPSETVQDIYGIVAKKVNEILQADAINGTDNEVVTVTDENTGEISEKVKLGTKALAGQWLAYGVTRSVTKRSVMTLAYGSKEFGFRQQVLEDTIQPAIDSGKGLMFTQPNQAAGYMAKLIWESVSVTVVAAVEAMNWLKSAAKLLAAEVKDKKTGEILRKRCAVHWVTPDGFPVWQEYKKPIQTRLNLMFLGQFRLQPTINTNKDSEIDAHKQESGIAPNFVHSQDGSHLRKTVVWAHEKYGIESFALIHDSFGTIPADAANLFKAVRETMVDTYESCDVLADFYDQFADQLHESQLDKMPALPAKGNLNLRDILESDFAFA

[7] = target: T1, AmpiTaq DNA polymerase (Thermus aquaticus, UniProt P19821); experiment: PCR and sequencing with pyrrolo-dCTP replacing dCTP; format: biochemical; conditions: dye-terminator cycle sequencing of PCR product
T1 construct: purchased Applied Biosystems
T1 sequence (P19821 whole entry): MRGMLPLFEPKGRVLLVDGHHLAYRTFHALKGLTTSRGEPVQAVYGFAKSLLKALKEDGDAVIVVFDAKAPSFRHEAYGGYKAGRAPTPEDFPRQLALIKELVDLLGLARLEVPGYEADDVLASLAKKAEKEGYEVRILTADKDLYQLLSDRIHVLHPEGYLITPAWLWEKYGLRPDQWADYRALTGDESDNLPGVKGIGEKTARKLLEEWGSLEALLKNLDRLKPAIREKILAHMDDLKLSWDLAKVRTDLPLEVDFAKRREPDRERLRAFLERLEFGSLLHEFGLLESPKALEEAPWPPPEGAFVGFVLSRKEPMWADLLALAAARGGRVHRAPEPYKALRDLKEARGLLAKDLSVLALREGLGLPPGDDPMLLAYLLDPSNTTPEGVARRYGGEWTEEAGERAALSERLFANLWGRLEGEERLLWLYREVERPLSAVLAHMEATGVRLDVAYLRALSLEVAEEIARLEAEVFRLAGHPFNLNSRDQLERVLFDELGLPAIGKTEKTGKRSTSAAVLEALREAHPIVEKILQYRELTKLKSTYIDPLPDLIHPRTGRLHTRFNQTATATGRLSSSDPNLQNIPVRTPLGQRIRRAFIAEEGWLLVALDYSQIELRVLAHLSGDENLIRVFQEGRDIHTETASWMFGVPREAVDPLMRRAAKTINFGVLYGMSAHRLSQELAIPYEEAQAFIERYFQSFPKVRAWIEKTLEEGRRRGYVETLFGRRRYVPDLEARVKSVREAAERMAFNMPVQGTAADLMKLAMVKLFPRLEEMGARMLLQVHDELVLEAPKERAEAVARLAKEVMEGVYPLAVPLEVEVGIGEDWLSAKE
Text: The triphosphate of pyrrolo-dC (pyrrolo-dCTP) was synthesized and compared with dCTP for its ability to be recognized by polymerases and be incorporated as a dC into polymerase generated products. Nucleotide-triphosphate mixes containing either dCTP or pyrrolo-dCTP were used in amplification reactions similar to the ones above and the product analyzed by acrylamide gel.
The PCR and sequencing experiments in Example 15 were repeated to determine if polymerases incorporated pyrrolo-dCTP as efficiently as dCTP (FIGS. 7 & 8). Purified plasmid DNA with 500-600 bp inserts were amplified in a standard 25 μl PCR reaction. One of the primers was biotinylated to facilitate the post-reaction cleanup of the PCR product. AmpiTaq DNA polymerase (1.25 Units, Applied Biosystems) was used as enzyme with 200 μM final concentration of each dNTP. In the pyrrolo-dCTP samples the dCTP was replaced with 200 μM pyrrolo-dCTP. Following the PCR reaction (55° C. annealing for 20 sec, 72° C. extension for 45 sec, 30 cycles) an aliquot of the reaction was subjected to agarose gel electrophoresis to verify the size and quality of the product. […] An aliquot of the purified product, still attached to the magnetic beads, was sequenced in a standard fluorescent dye-terminator cycle sequencing reaction and analyzed on a Beckman CEQ2000XL DNA sequencer.

[8] = test system: polymerases; experiment: Cycle sequencing of PCR fragments made with pyrrolo-dC substituted primer; format: biochemical; conditions: C in sense strand product, G in antisense strand product
Text: A series of tests was designed to determine if a pyrrolo-dC residue coded as dC for a dG. In this experiment a 100× diluted aliquot of the ˜500 nucleotide insert generated by the control T7 and Sp6 primers was further amplified using a biotinylated Sp6 primer and either a control 42 base M13-T7 primer or one with four pyrrolo-dC substitutions in the T7 sequence. The PCR product was captured on streptavidin beads, excess primers were removed by washing, and the suspension was divided into two portions. One reaction (the antisense strand) was sequenced using an M13 forward primer (using ABI dRhodamine chemistry); the other was sequenced (carried out using Beckman dye terminator chemistry) by using Sp6, after releasing the sense strand by heat denaturation of the immobilized PCR fragment.
Sequencing reactions (in duplicate) were carried out with PCR fragments to determine if pyrrolo-dC substitutes for dC. PCR fragments were generated by using, as template, a 100-fold dilution of the product of T7/bio-Sp6 reaction (similar to lane 5 above) and a primer pair of biotinylated Sp6 and the M13F-T7 (or its pyrrolo-dC-substituted homolog). The PCR fragment from this amplification was purified by streptavidin beads to remove excess primers and the suspension divided into two portions. […] Thus, under cycle sequencing conditions, the pyrrolo-dC residue is read as a dC.

In the case of “SEQ ID NO.: 1: 19mer oligonucleotide 5′-GCC TAA CTT CXG GAG ATG T-3′, where X is Pyrrolo-dC”, the “melting temperature Tm” value ([1]; dA opposite pyrrolo-dC) is reported as 55 °C, the “melting temperature Tm” value ([1]; dC opposite pyrrolo-dC) is reported as 52 °C and the “melting temperature Tm” value ([1]; dG opposite pyrrolo-dC) is reported as 65 °C. For the same molecule, the “melting temperature Tm” value ([1]; dT opposite pyrrolo-dC) was 56 °C.
For “SEQ ID NO.:9: T7 forward primer 5′-TAA TAX GAX TXA XTA TAG G-3′, X=pyrrolo-dC; four substitutions (TAATACGACTCACTATAGG; DNA, [pyrroloC] at 6, 9, 11, 13, backbone not given here)”, the “ability to be used by polymerases in PCR versus unsubstituted T7 primer” value [2] was “equivalence” and the “primer amount at which product formation sharply decreases” value [3] was “around 0.15 pmol”.
In the case of `Cc1cc2cn([C@H]3C[C@H](O)[C@@H](CO)O3)c(=O)nc2[nH]1` [Pyrrolo-dC, 6-Methyl-3-(β-D-2-deoxyribofuranosyl)pyrrolo[2,3-d]pyrimidin-2-one], the “fluorescence when mismatched in an otherwise duplex hybrid” value [4] is given as “higher than the single-stranded species”, the E260 [5] is given as 4,000 LImol cm and the E345 [5] is given as 3,700 L/mol cm. For the same molecule, the “QY (quantum yield)” value ([5]; double-stranded) was 0.02, the “QY (quantum yield)” value ([5]; single-stranded) was 0.07 and the “increase in fluorescence as the polymerase induces melting” value [6] was “two-fold”. For the same molecule, the “sequence of PCR product generated with the triphosphate” value [7] was “specifically incorporated as a “dC” opposite a dG residue” and the “how the residue is read under cycle sequencing conditions” value [8] was ““read” as a dC; also recorded: read as a dC”.
